# Measured values published in patent publication US20110039825A1, “LIGANDS OF ALPHA-ADRENOCEPTORS, DOPAMINE, HISTAMINE, IMIDAZOLINE AND SEROTONIN RECEPTORS AND THEIR USE” (Alla Chem, LLC, priority 2007, published 2011).
# Columns and labels:
# [1] = biological target: T1, human α1D receptor (Homo sapiens, UniProt P25100); assay: radioligand binding to adrenergic receptor α1D ([3H] Prazosin)
# T1 construct: expressed in transfected cells; host or cells: HEK-293
# T1 sequence (P25100 1-572): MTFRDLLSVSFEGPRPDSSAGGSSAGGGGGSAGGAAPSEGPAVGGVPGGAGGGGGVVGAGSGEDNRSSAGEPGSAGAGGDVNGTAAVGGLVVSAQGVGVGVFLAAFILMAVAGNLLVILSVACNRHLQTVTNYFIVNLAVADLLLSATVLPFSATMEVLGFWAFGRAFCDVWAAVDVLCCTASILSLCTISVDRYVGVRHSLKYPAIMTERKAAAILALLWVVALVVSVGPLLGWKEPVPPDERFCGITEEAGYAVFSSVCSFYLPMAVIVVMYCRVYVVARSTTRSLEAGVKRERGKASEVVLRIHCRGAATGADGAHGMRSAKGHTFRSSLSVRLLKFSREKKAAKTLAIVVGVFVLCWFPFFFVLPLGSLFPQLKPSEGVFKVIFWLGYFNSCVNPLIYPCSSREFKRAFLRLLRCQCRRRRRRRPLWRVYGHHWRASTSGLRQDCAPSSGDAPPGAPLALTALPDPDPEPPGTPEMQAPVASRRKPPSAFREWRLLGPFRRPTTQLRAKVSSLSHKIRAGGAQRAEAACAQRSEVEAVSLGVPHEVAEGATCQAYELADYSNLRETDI
# Excerpt: 6-C. […] For this purpose sDNA of human α1D receptor is expressed in HEK-293 cells, as it was described in [T L Theroux, T A Esbenshade, R D Peavy and K P Minneman. Coupling efficiencies of human alpha 1-adrenergic receptor subtypes: titration of receptor density and responsiveness with inducible and repressible expression vectors. Mol. Pharmacol.; 50: 1376-1387, 1996]. […] Prazosin is used as positive control.
# [2] = biological target: T2, human α2A receptor (Homo sapiens, UniProt P08913); assay: radioligand binding to adrenergic receptor α2A ([3H] MK-912)
# T2 construct: expressed in transfected cells; host or cells: Sf9
# T2 sequence (P08913 1-465): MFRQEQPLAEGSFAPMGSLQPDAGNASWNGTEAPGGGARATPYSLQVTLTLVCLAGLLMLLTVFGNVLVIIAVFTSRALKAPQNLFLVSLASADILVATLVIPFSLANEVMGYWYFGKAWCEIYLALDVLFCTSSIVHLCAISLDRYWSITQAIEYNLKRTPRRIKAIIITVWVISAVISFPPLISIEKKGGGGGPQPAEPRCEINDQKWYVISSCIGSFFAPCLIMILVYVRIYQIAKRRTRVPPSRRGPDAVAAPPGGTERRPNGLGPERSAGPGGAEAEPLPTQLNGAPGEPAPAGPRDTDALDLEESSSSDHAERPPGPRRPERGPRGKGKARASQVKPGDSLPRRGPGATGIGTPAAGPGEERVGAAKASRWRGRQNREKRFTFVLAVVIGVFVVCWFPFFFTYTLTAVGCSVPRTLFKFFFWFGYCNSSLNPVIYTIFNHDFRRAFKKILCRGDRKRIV
# Excerpt: J Pharmacol ExpTher. […] Yohimbine is used as positive control.
# [3] = biological target: T3, human D4.2 receptor (Homo sapiens, UniProt P21917, DEL265-296); assay: radioligand binding to dopamine receptor D4.2 ([3H] Spiperone); conditions: 10 μM ligand
# T3 sequence (P21917 with tags, fused parts or gaps DEL265-296): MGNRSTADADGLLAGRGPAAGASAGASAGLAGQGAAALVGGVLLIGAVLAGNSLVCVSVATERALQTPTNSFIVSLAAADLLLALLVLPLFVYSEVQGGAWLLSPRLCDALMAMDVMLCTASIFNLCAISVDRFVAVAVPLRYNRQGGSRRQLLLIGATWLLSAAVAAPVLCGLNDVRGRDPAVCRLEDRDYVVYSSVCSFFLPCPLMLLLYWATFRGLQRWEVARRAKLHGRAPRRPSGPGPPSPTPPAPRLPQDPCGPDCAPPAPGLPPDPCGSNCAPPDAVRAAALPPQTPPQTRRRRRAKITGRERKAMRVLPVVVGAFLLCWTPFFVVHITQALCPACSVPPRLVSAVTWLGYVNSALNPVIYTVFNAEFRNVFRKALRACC
# Procedure: Screening of the disclosed compounds for potential ability to interact with dopamine receptor D4.2 is carried out by method of radioligand binding. […] From the cells transfected in this way membrane species are prepared by homogenization of these cells in glass homogenizer with the subsequent separation of plasmatic membranes from cell nuclei, mitochondrias and cell wreckages by differential centrifugation. […] After incubation samples are filtered in vacuo on glass-microfiber filters G/F (Millipor, USA), filters are washed three times with cold solution of medium and radioactivity is measured by scintillation counter MicroBeta 340 (Perkin Elmer, USA). Nonspecific binding which makes up 10% of the overall binding is determined by incubation of membrane species with radioligand in the presence of 10 μM of Haloperidol.
# Spiperone is used as positive control. Tested compounds' binding to the receptor is determined by their ability to displace radioligand and expressed in percent of displacement (% I). Values of % I are calculated according to the following equation:
# wherein: TA—is overall radioactivity in the presence of radioligand only, CA—is radioactivity in the presence of radioligand and tested compound and NA—is radioactivity in the presence of radioligand and Haloperidol (10 μM).
# [4] = biological target: T4, human H2 receptor (Homo sapiens, UniProt P25021); assay: radioligand binding to histamine receptor H2 ([125I] Aminopotentidine); conditions: 10 μM ligand
# T4 construct: expressed in transfected cells; host or cells: CHO-K1
# Excerpt: Proc Natl Acad Sci USA. 87(5): 1658-1662, 1990]. […] Proc Natl Acad Sci USA. 87(5): 1658-1662, 1990]. […] Tiotidine is used as positive control.
# [5] = biological target: T5, human 5-HT7 receptor (Homo sapiens, UniProt P34969); assay: radioligand binding to serotonin receptor 5-HT7 ([3H] Lysergic acid diethylamide)
# T5 construct: expressed in transfected cells; host or cells: CHO
# Excerpt: For this purpose sDNA of human 5-HT7 receptor is expressed in CHO cells as it was described in [Shen Y, Monsma F J Jr, Metcalf M A, Jose P A, Hamblin M W, and Sibley DR. […] J. Biol. Chem. 1993, 268, 18200-18204]. […] J. Pharmacol. Exp. Ther. 1994, 268:1403-1410]. […] Methiothepin is used as positive control.
# [6] = biological target: T6, recombinant human 5-HT2B receptor (Homo sapiens, UniProt P41595); assay: radioligand binding to serotonin receptor 5-HT2B ([3H] Lysergic acid diethylamide)
# T6 construct: expressed in transfected cells; host or cells: CHO-K1
# [7] = biological target: T7, recombinant human 5-HT2C receptor (Homo sapiens, UniProt P28335); assay: radioligand binding to serotonin receptor 5-HT2C ([3H] Mesulergine)
# T7 construct: expressed in transfected cells; host or cells: CHO-K1
# T7 sequence (P28335 33-458): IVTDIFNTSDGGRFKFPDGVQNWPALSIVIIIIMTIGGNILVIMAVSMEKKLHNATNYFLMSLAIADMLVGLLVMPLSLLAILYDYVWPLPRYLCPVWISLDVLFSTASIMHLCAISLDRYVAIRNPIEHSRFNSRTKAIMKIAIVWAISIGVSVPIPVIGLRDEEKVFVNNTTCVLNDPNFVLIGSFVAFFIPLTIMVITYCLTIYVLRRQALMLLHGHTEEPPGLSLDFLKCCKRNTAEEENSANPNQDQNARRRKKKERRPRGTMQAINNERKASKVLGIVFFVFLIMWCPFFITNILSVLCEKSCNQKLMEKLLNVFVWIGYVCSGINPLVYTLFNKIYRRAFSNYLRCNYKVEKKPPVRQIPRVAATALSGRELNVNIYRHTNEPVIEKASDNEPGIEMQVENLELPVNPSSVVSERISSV
# Excerpt: J. Neurochem. 69: 1449-1458, 1997]. […] SB242084 is used as positive control.
# T6 sequence (P41595 whole entry): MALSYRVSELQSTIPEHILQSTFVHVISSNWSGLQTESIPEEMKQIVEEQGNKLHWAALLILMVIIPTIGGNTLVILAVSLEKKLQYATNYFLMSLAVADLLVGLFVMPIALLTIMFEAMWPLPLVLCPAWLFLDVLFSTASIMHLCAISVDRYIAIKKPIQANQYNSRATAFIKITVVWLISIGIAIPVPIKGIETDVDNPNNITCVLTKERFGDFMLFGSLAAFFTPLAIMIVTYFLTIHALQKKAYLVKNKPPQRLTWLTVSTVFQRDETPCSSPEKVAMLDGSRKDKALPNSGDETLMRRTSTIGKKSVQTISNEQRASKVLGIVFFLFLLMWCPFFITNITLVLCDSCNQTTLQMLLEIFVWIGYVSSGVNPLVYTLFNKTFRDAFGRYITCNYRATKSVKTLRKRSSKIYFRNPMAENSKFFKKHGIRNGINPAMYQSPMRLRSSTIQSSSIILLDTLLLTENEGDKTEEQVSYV
# T4 sequence (P25021 whole entry): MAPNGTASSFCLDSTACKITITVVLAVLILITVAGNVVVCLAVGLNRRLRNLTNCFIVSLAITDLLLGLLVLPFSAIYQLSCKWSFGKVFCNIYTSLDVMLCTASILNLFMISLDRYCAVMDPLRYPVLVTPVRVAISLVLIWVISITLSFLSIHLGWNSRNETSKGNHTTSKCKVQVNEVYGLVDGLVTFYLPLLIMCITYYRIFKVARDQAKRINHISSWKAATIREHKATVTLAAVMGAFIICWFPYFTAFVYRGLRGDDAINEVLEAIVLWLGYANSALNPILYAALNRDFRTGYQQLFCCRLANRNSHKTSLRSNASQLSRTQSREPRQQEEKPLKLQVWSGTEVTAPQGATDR
# T5 sequence (P34969 whole entry): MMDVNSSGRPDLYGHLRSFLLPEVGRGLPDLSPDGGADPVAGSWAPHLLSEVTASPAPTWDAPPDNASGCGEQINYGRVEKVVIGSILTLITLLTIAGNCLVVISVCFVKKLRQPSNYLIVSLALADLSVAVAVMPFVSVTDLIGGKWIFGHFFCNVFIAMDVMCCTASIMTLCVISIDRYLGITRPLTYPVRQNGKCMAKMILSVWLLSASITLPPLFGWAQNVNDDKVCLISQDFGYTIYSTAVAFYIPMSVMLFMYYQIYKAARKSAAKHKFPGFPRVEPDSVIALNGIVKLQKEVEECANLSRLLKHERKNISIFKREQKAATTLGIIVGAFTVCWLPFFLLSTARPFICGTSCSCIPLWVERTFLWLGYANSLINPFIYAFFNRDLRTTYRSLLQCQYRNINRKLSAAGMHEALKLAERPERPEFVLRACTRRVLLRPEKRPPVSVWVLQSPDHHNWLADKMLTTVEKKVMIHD
SMILES,"α-Adrenoceptor α1D, % inhibition ([1]; 10 μM ligand)","α-Adrenoceptor α2A, % inhibition ([2]; 10 μM ligand)","Dopamine receptor D4.2, % inhibition [3]","Histamine receptor H2, % inhibition [4]",IC50 [1],Ki [1],nH 5-HT2B [6],IC50 [2],Ki [2],other results
Cc1ccc2c(c1)[C@@H]1CN(C)CCC[C@@H]1N2CCc1ccc(C)nc1.Cl.Cl.Cl (relative stereo) [1.6.1(2)•3HCl],87%,82%,−11%,66%,,,,,,5-HT7 % inhibition ([5]; 10 μM ligand): 8%
Cc1ccc2c(c1)c1c(n2CCc2ccccn2)CCN(C)C1.Cl.Cl [1.1.2(2-3)•2HCl],,,,,282 nM,139 nM,0.913,128 nM,47.9 nM,IC50 ([6]; read-out: IC50 5-HT2B): 1020 nM; Ki ([6]; read-out: Ki 5-HT2B): 647 nM; inhibition at 1 µM ([5]; ligand concentration 1 μM): 100%
Cc1ccc2c(c1)[C@H]1CN(C)CCC[C@@H]1N2CCc1cccnc1 [1.6.2(10)•3HCl],86%,92%,5%,69%,,,,,,inhibition at 1 µM ([7]; ligand concentration 1 μM): 99%
"CN1CCc2c(c3ccccc3n2Cc2ccccc2)C1 [1.9(1)•½NDSA, bis-(5-benzyl-2-methyl-2,3,4,5-tetrahydro-1H-pyrido[4,3-b]indole) naphtalene-1,5-disulfonate]",,,,,1330 nM,656 nM,0.552,123 nM,46.1 nM,"nH α1D [1]: 1.05; α-Adrenoceptor α1D, % inhibition ([1]; 3 μM ligand): 70(3 μM) %; nH α2A [2]: 1.13; α-Adrenoceptor α2A, % inhibition ([2]; 0.3 μM ligand): 73(0.3 μM) %; IC50 [7]: 13.5 nM; Ki [7]: 7.08 nM; nH 5-HT2C [7]: 0.987"
